The subject of experiment [1] is Homo sapiens. The experiment can be described thus: Antioxidant activity against lipid peroxidation in chronic renal failure patient plasma assessed as reduction in malondialdehyde level at 2 mg/kg treated once day before night sleep by thiobarbituric acid based spectrophotometry (Rvb=2.68 +/- 0.44 umol/L). Further details: dose 2 mg/kg. It counts as functional, organism-based. The note with it: TDE = time-dependent effect.

Experiment [2] relates to Homo sapiens. The experiment can be described thus: Antioxidant activity against lipid peroxidation in chronic renal failure patient plasma assessed as malondialdehyde level at 2 mg/kg treated once day before night sleep measured after 1 month by thiobarbituric acid based spectrophotometry (Rvb=2.68 +/- 0.44 umol/L). It is filed as functional.
For experiment [3], the system named is Homo sapiens. Kind of experiment: Antioxidant activity against lipid peroxidation in chronic renal failure patient plasma assessed as malondialdehyde level at 2 mg/kg treated once day before night sleep measured after 2 months by thiobarbituric acid based spectrophotometry (Rvb=2.68 +/- 0.44 umol/L). It counts as functional.
For experiment [4], the system named is Homo sapiens. Kind of experiment: Antioxidant activity against lipid peroxidation in chronic renal failure patient plasma assessed as malondialdehyde level at 2 mg/kg treated once day before night sleep measured after 3 months by thiobarbituric acid based spectrophotometry (Rvb=2.68 +/- 0.44 umol/L). It counts as functional.

Take `COc1ccc2[nH]cc(CCNC(C)=O)c2c1` [MELATONIN]: the Activity result was “tde” in the experiment with Homo sapiens [1], 4.02 µM in the experiment with Homo sapiens [2], 3.09 µM with Homo sapiens [3] and 2.79 µM in the experiment on Homo sapiens [4].

The values are drawn from ChEMBL document CHEMBL1152889, “Melatonin: Quantum-chemical and biochemical investigation of antioxidant activity” (2009).
